The values below are quoted from earlier work in patent US6743775B2, “Slow release formulations comprising anionic polysaccharide” (Alpenstock Holdings Limited, priority 1998, dated 2004).

The conditions of the data set: gelatine alone; Schwartz et al., Principles of Surgery 1979.

Take gelatine: the haemostatic effect entry is “only displays a haemostatic effect after an addition of thrombin”.
